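Growth conditions: 96-well plates. Treatment: test compound, 48 hours, 5 concentrations. Analysis: linear interpolation between bracketing concentrations; unreached endpoints set to highest concentration. Here, GI50 denotes the concentration required for 50% inhibition of growth. TGI: total growth inhibition.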
Tests used:
Assay in all cases: DTP human tumour cell line panel, 48 h; in the data active means GI50 below about 0.43 µM; inactive means the rest
NCI/ADR-RES ovarian = tested on: NCI/ADR-RES ovarian
M14 melanoma = tested on: M14 melanoma
SNB-19 CNS = tested on: SNB-19 CNS
NCI-H460 lung = tested on: NCI-H460 lung
PC-3 prostate = tested on: PC-3 prostate
UACC-257 melanoma = tested on: UACC-257 melanoma
OVCAR-4 ovarian = tested on: OVCAR-4 ovarian
HS 578T breast = tested on: HS 578T breast
NCI-H23 lung = tested on: NCI-H23 lung
SF-268 CNS = tested on: SF-268 CNS
TK-10 renal = tested on: TK-10 renal
A498 renal = tested on: A498 renal
CAKI-1 renal = tested on: CAKI-1 renal
DU-145 prostate = tested on: DU-145 prostate
786-0 renal = tested on: 786-0 renal
CCRF-CEM leukemia = tested on: CCRF-CEM leukemia
SW-620 colon = tested on: SW-620 colon
RXF 393 renal = tested on: RXF 393 renal
NCI-H522 lung = tested on: NCI-H522 lung
HCT-116 colon = tested on: HCT-116 colon
HCC-2998 colon = tested on: HCC-2998 colon
MOLT-4 leukemia = tested on: MOLT-4 leukemia
MALME-3M melanoma = tested on: MALME-3M melanoma
HOP-62 NSCLC = tested on: HOP-62 NSCLC
SR leukemia = tested on: SR leukemia
HT29 colon = tested on: HT29 colon
OVCAR-8 ovarian = tested on: OVCAR-8 ovarian
NCI-H226 lung = tested on: NCI-H226 lung
K-562 leukemia = tested on: K-562 leukemia
EKVX NSCLC = tested on: EKVX NSCLC
SF-539 CNS = tested on: SF-539 CNS
LOX IMVI melanoma = tested on: LOX IMVI melanoma
SK-MEL-2 melanoma = tested on: SK-MEL-2 melanoma
OVCAR-3 ovarian = tested on: OVCAR-3 ovarian
SNB-75 CNS = tested on: SNB-75 CNS
OVCAR-5 ovarian = tested on: OVCAR-5 ovarian
SK-OV-3 ovarian = tested on: SK-OV-3 ovarian
KM12 colon = tested on: KM12 colon
UO-31 renal = tested on: UO-31 renal
T-47D breast = tested on: T-47D breast
SN12C renal = tested on: SN12C renal
A549 NSCLC = tested on: A549 NSCLC
MCF7 breast = tested on: MCF7 breast
ACHN renal = tested on: ACHN renal
HOP-92 NSCLC = tested on: HOP-92 NSCLC
HCT-15 colon = tested on: HCT-15 colon
IGROV1 ovarian = tested on: IGROV1 ovarian
SK-MEL-5 melanoma = tested on: SK-MEL-5 melanoma
U251 CNS = tested on: U251 CNS
MDA-MB-231 breast = tested on: MDA-MB-231 breast
UACC-62 melanoma = tested on: UACC-62 melanoma
BT-549 breast = tested on: BT-549 breast
SF-295 CNS = tested on: SF-295 CNS
RPMI-8226 leukemia = tested on: RPMI-8226 leukemia
MDA-MB-435 = tested on: MDA-MB-435
HL-60(TB) leukemia = tested on: HL-60(TB) leukemia
SK-MEL-28 melanoma = tested on: SK-MEL-28 melanoma
COLO 205 colon = tested on: COLO 205 colon

O=c1c(-c2nc3ccccc3[nH]2)cc2ccccc2n1Cc1cn(Cc2ccc(F)cc2)nn1
96.9 µM: TGI (HT29 colon)
0.39 µM: TGI (M14 melanoma)
50.7 µM: TGI (UACC-62 melanoma)
> 50.9 µM: TGI (HCT-15 colon)
> 40.5 µM: TGI (ACHN renal) | TGI (BT-549 breast)
66.4 µM: TGI (MALME-3M melanoma)
1.05 µM: TGI (DU-145 prostate)
> 41.5 µM: TGI (KM12 colon)
> 100 µM: TGI (NCI-H460 lung) | TGI (PC-3 prostate) | TGI (UACC-257 melanoma) | TGI (OVCAR-4 ovarian) | TGI (CAKI-1 renal) | TGI (CCRF-CEM leukemia) | TGI (SW-620 colon) | TGI (MOLT-4 leukemia) | TGI (SR leukemia) | TGI (OVCAR-8 ovarian) | TGI (NCI-H226 lung) | TGI (K-562 leukemia) | TGI (EKVX NSCLC) | TGI (LOX IMVI melanoma) | TGI (UO-31 renal) | TGI (T-47D breast) | TGI (SN12C renal) | TGI (A549 NSCLC) | TGI (IGROV1 ovarian) | TGI (RPMI-8226 leukemia)
0.636 µM: TGI (SF-539 CNS)
> 55.1 µM: TGI (MCF7 breast)
11 µM: TGI (SF-295 CNS)
15.8 µM: TGI (TK-10 renal)
inactive: GI50 (NCI/ADR-RES ovarian) 1.28 µM | GI50 (UACC-257 melanoma) > 100 µM | GI50 (OVCAR-4 ovarian) 1.35 µM | GI50 (NCI-H23 lung) 0.457 µM | GI50 (TK-10 renal) 0.793 µM | GI50 (NCI-H226 lung) 0.572 µM | GI50 (EKVX NSCLC) 0.799 µM | GI50 (ACHN renal) 0.492 µM | GI50 (UACC-62 melanoma) 0.437 µM
9.51 µM: TGI (HOP-62 NSCLC)
4.63 µM: TGI (SK-OV-3 ovarian)
active: GI50 (M14 melanoma) 0.0568 µM | GI50 (SNB-19 CNS) 0.305 µM | GI50 (NCI-H460 lung) 0.0435 µM | GI50 (PC-3 prostate) 0.153 µM | GI50 (HS 578T breast) 0.0546 µM | GI50 (SF-268 CNS) 0.259 µM | GI50 (A498 renal) 0.127 µM | GI50 (CAKI-1 renal) 0.246 µM | GI50 (DU-145 prostate) 0.143 µM | GI50 (786-0 renal) 0.415 µM | GI50 (CCRF-CEM leukemia) 0.135 µM | GI50 (SW-620 colon) 0.0672 µM | GI50 (RXF 393 renal) 0.125 µM | GI50 (NCI-H522 lung) 0.0957 µM | GI50 (HCT-116 colon) 0.0442 µM | GI50 (HCC-2998 colon) 0.203 µM | GI50 (MOLT-4 leukemia) 0.233 µM | GI50 (MALME-3M melanoma) 0.213 µM | GI50 (HOP-62 NSCLC) 0.222 µM | GI50 (SR leukemia) 0.0732 µM | GI50 (HT29 colon) 0.041 µM | GI50 (OVCAR-8 ovarian) 0.139 µM | GI50 (K-562 leukemia) 0.0609 µM | GI50 (SF-539 CNS) 0.137 µM | GI50 (LOX IMVI melanoma) 0.084 µM | GI50 (SK-MEL-2 melanoma) 0.348 µM | GI50 (OVCAR-3 ovarian) 0.15 µM | GI50 (SNB-75 CNS) < 0.0149 µM | GI50 (OVCAR-5 ovarian) 0.287 µM | GI50 (SK-OV-3 ovarian) 0.328 µM | GI50 (KM12 colon) 0.143 µM | GI50 (UO-31 renal) 0.327 µM | GI50 (T-47D breast) 0.206 µM | GI50 (SN12C renal) 0.203 µM | GI50 (A549 NSCLC) 0.116 µM | GI50 (MCF7 breast) 0.0329 µM | GI50 (HOP-92 NSCLC) 0.364 µM | GI50 (HCT-15 colon) 0.399 µM | GI50 (IGROV1 ovarian) 0.221 µM | GI50 (SK-MEL-5 melanoma) 0.164 µM | GI50 (U251 CNS) 0.161 µM | GI50 (MDA-MB-231 breast) 0.313 µM | GI50 (BT-549 breast) 0.164 µM | GI50 (SF-295 CNS) 0.253 µM | GI50 (RPMI-8226 leukemia) 0.0427 µM
> 85.7 µM: TGI (SK-MEL-5 melanoma)
11.3 µM: TGI (786-0 renal)
5.56 µM: TGI (HCT-116 colon)
0.911 µM: TGI (OVCAR-3 ovarian)
0.113 µM: TGI (SNB-75 CNS)
19.2 µM: TGI (NCI/ADR-RES ovarian)
1.18 µM: TGI (HS 578T breast)
12.4 µM: TGI (U251 CNS)
10.2 µM: TGI (SK-MEL-2 melanoma)
8.41 µM: TGI (MDA-MB-231 breast)
0.484 µM: TGI (RXF 393 renal)
25.2 µM: TGI (SNB-19 CNS)
3.31 µM: TGI (HCC-2998 colon)
7.84 µM: TGI (OVCAR-5 ovarian)
57.6 µM: TGI (SF-268 CNS)
0.716 µM: TGI (A498 renal)
18.2 µM: TGI (HOP-92 NSCLC)
19 µM: TGI (NCI-H23 lung)

Nc1nc(-c2ccccc2Cl)cc(-c2ccc(Cl)cc2Cl)n1
62.3 µM: TGI (SK-OV-3 ovarian)
89.7 µM: TGI (OVCAR-4 ovarian)
23.3 µM: TGI (NCI-H522 lung)
> 100 µM: TGI (NCI/ADR-RES ovarian) | TGI (M14 melanoma) | TGI (SNB-19 CNS) | TGI (PC-3 prostate) | TGI (NCI-H23 lung) | TGI (CAKI-1 renal) | TGI (786-0 renal) | TGI (CCRF-CEM leukemia) | TGI (SW-620 colon) | TGI (HCT-116 colon) | TGI (MOLT-4 leukemia) | TGI (MALME-3M melanoma) | TGI (HOP-62 NSCLC) | TGI (SR leukemia) | TGI (OVCAR-8 ovarian) | TGI (NCI-H226 lung) | TGI (K-562 leukemia) | TGI (LOX IMVI melanoma) | TGI (OVCAR-5 ovarian) | TGI (SK-MEL-28 melanoma) | TGI (UO-31 renal) | TGI (T-47D breast) | TGI (SN12C renal) | TGI (A549 NSCLC) | TGI (MCF7 breast) | TGI (ACHN renal) | TGI (HCT-15 colon) | TGI (IGROV1 ovarian) | TGI (U251 CNS) | TGI (MDA-MB-231 breast) | TGI (BT-549 breast)
inactive: GI50 (NCI/ADR-RES ovarian) 14.8 µM | GI50 (M14 melanoma) 5.95 µM | GI50 (SNB-19 CNS) 16.1 µM | GI50 (NCI-H460 lung) 3.31 µM | GI50 (PC-3 prostate) 5.43 µM | GI50 (UACC-257 melanoma) 11.9 µM | GI50 (OVCAR-4 ovarian) 12.1 µM | GI50 (HS 578T breast) 6.04 µM | GI50 (NCI-H23 lung) 12.3 µM | GI50 (SF-268 CNS) 5.01 µM | GI50 (TK-10 renal) 9.46 µM | GI50 (A498 renal) 3.34 µM | GI50 (CAKI-1 renal) 9.27 µM | GI50 (MDA-MB-435) 1.97 µM | GI50 (DU-145 prostate) 5.33 µM | GI50 (786-0 renal) 20.2 µM | GI50 (CCRF-CEM leukemia) 4.17 µM | GI50 (SW-620 colon) 3.41 µM | GI50 (RXF 393 renal) 2.67 µM | GI50 (NCI-H522 lung) 3.27 µM | GI50 (HCT-116 colon) 4.27 µM | GI50 (HCC-2998 colon) 7.19 µM | GI50 (MOLT-4 leukemia) 4.82 µM | GI50 (MALME-3M melanoma) 17.7 µM | GI50 (HOP-62 NSCLC) 8.21 µM | GI50 (HL-60(TB) leukemia) 3.14 µM | GI50 (SR leukemia) 4.1 µM | GI50 (HT29 colon) 4.32 µM | GI50 (OVCAR-8 ovarian) 6.87 µM | GI50 (NCI-H226 lung) 18.1 µM | GI50 (K-562 leukemia) 3.97 µM | GI50 (SF-539 CNS) 7.39 µM | GI50 (LOX IMVI melanoma) 4.89 µM | GI50 (SK-MEL-2 melanoma) 6.1 µM | GI50 (OVCAR-3 ovarian) 4.05 µM | GI50 (OVCAR-5 ovarian) 8.09 µM | GI50 (SK-OV-3 ovarian) 10.1 µM | GI50 (SK-MEL-28 melanoma) 20.9 µM | GI50 (KM12 colon) 4.1 µM | GI50 (UO-31 renal) 13.5 µM | GI50 (T-47D breast) 6.58 µM | GI50 (SN12C renal) 13.1 µM | GI50 (A549 NSCLC) 4.81 µM | GI50 (MCF7 breast) 3.45 µM | GI50 (COLO 205 colon) 3.52 µM | GI50 (ACHN renal) 10.4 µM | GI50 (HOP-92 NSCLC) 0.527 µM | GI50 (HCT-15 colon) 5.09 µM | GI50 (IGROV1 ovarian) 12.3 µM | GI50 (SK-MEL-5 melanoma) 4.78 µM | GI50 (U251 CNS) 11.1 µM | GI50 (MDA-MB-231 breast) 9.3 µM | GI50 (UACC-62 melanoma) 5.93 µM | GI50 (BT-549 breast) 13.8 µM | GI50 (RPMI-8226 leukemia) 3.1 µM
51 µM: TGI (TK-10 renal)
24.3 µM: TGI (HT29 colon)
7.62 µM: TGI (HOP-92 NSCLC)
44.8 µM: TGI (SK-MEL-2 melanoma)
4.93 µM: TGI (MDA-MB-435)
15.5 µM: TGI (COLO 205 colon)
31.3 µM: TGI (KM12 colon)
44.2 µM: TGI (UACC-62 melanoma)
81.6 µM: TGI (SF-268 CNS)
20.7 µM: TGI (OVCAR-3 ovarian)
70.1 µM: TGI (DU-145 prostate)
17.3 µM: TGI (HL-60(TB) leukemia)
60.7 µM: TGI (HS 578T breast)
23.1 µM: TGI (NCI-H460 lung)
67 µM: TGI (SF-539 CNS)
17.6 µM: TGI (RPMI-8226 leukemia)
55.2 µM: TGI (UACC-257 melanoma)
22.8 µM: TGI (A498 renal)
10.7 µM: TGI (RXF 393 renal)
44 µM: TGI (HCC-2998 colon)
20.8 µM: TGI (SK-MEL-5 melanoma)

Reference: PubChem BioAssay (NCI)
